melting point [°C] | SMILES
128 | NC1(C2CCCC2)NC=Nc2[nH]cc(-c3cccc(Oc4ccccc4)c3)c21 (stereo not drawn)
207 to 208 | CNC(=S)NS(=O)(=O)c1cc2c(cc1C)OCC(NC(=O)c1cc(Cl)ccc1OC)C2 (stereo not drawn)
58 | C#CCn1cc(C(=O)OCC)c(C(F)(F)F)c1
43 to 46 | CCCCCCCCCCC[C@@H](C[C@@H]1OC(=O)[C@H]1CCCCCC)OC(=O)[C@H](CC(C)C)NC(=O)OCc1ccccc1
104 to 105 | OCC1C(Cl)=Cc2ccccc21 (stereo not drawn)
194 to 195 | O=C(O)c1cccc(-c2cccc3oc(Cc4ccc(F)c(F)c4)cc23)c1
82 to 83 | CC(C)c1cc2ncnn2nc1SCCCCl
174 to 175 | COc1cc(C=CC(=O)Nc2cnc3c(C)cc(C)cc3c2-c2ccccc2Cl)ccc1OC(C)=O

Reference: a melting point compilation (Tetko et al.; mined from patent text by program, amines drawn as free bases though some values may be those of a salt)
